# Laboratory results: patent US4007201A, “Novel pyrazole derivatives” (Kyorin Pharmaceutical Co. Ltd., priority 1975, dated 1977)
# What was measured:
# [1] = test system: blood glucose level in fasted and glucose-loaded rats; experiment: Duration of the action of the compound 4 (fasted, glucose-loaded rats); assay type: in vivo, male Sprague Dawley rats; conditions: for Blood glucose before administration: 50 mg/kg oral group, before administration (baseline); for Blood glucose before administration / Blood glucose 2 hours / Blood glucose 4 hours / Blood glucose 6 hours: ± SE
# Experimental: (§1) These new compounds of the present invention are very useful as anti-diabetic agents, which is supported from the following pharmacological studies. The animals used for the pharmacological studies were male Sprague Dawley rats exept otherwise noted. 1. Hypoglycemic activity in non-diabetic rats (screening test)
# The rats were fasted for 16 - 18 hours prior to the experiment and those weighing 140 - 160g were used. Glucose solution (100 mg/0.5ml/150g body weight) was subcutaneously injected on the fasted rats. Each of the present compounds was suspended in 1% carboxymethyl cellulose (CMC), and about 0.5 ml of the suspension (corresponding to 100 mg/kg of the compound per body weight) was orally administered. Blood samples were taken from the tail vein of the rats at 2 and 5 hours after the administration, and the blood glucose level in each sample (0.1 ml) was determined by the micro method of Momose as described in SOGO-RINSHO 11, 120 (1962).
# In order to reconfirm the effectiveness of the compounds of the present invention, more detailed examinations were performed on the most representative compound (compound of the Example 4 abbreviated hereinafter as the compound 4). The compound 4 suspended in 1% CMC was orally administered in a dose of 50 mg/kg to the fasted and glucose-loaded rats according to the preceding screening test, and the blood glucose levels at 2, 4 and 6 hours after the administration were determined by the method of Momose.
# [2] = test system: blood glucose level in alloxan diabetic rats; experiment: Hypoglycemic effect in alloxan diabetic rats; assay type: in vivo, male Sprague Dawley rats; conditions: for Hypoglycemic effect in alloxan diabetic rats (in words): oral
# Experimental: as §1
# (§2) Alloxan diabetic rats were obtained as follows. Namely, 2.5% fresh solution of alloxan (50mg/kg) was injected into the tail vein of male rats, and the rats were daily injected with insulin (1-4 units/day) from the 7th day after the administration of alloxan. The alloxan diabetic rats which were survived for more than 2 months with daily injection of insulin were used. The alloxan diabetic rats were fasted for 24 hours after the last treatment with insulin, and then the compound of the present invention was orally administered. The blood glucose levels were determined by the micro method of Momose before and 2, 4 and 6 hours after the administration.
# [3] = test system: blood glucose level in adrenalectomized rats; experiment: Hypoglycemic effect in adrenalectomized rats; assay type: in vivo, male Sprague Dawley rats; conditions: for Reduction % from control / Blood glucose: 2 hours; for Blood glucose: ± SE
# Description: as §1
# The rats were adrenalectomized (both left and right adrenal glands) and were bred for 6-7 days by using 1% saline solution as for drinking water. The adrenalectomized rats were then fasted for 16-18 hours prior to the experiment. Glucose loading (100 mg/150g body weight) was performed by a subcutaneous administration of glucose solution on the back of the rats. Immediately after the glucose loading, the compound 4 suspended in 1% CMC was orally administered. Two hours after the oral administration, blood was obtained from the vena cava candalis of the rats under anesthesia with sodium pentobarbital. Blood glucose level was determined by the method of Momose.
# [4] = test system: elevated blood glucose levels in adrenalectomized rats induced by adrenalin; experiment: Adrenalin-induced hyperglycemia in adrenalectomized rats; assay type: in vivo, male Sprague Dawley rats; conditions: 4 mg/kg; adrenalin (50 mg/kg) subcutaneous
# [5] = test system: elevated blood glucose levels in adrenalectomized rats induced by hydrocortisone acetate; experiment: Hydrocortisone acetate-induced hyperglycemia in adrenalectomized rats; assay type: in vivo, male Sprague Dawley rats; conditions: 4 mg/kg; hydrocortisone acetate intravenous
# [6] = test system: blood glucose level in non-diabetic rats; experiment: Blood glucose level in non-diabetic rats at 90 minutes; assay type: in vivo, male Sprague Dawley rats; conditions: 100 mg/kg oral
# Experimental: as §1
# The rats were fasted for 16-18 hours, and those weighing 130-160g were used. The compound 4 suspended in 1% CMC was orally administered to the fasted rats, and at 90 minutes after administration blood was drawn from the […] vena cava under anesthesia with sodium pentobarbital. The blood glucose level was determined by the method of Momose, and the serum FFA level was determined by the method of Itaya and Ui as described in J. Lipid Res., 6, 16 (1965), respectively.
# [7] = test system: blood glucose level in non-diabetic rats; experiment: Blood glucose level in non-diabetic rats, oral administration for 10 days; assay type: in vivo, male Sprague Dawley rats
# Experimental: as §1
# (§3) The compound suspended in 1% CMC was orally administered once a day for 10 days to healthy rats weighing 140-160g. The rats were fasted for 16-18 hours prior to the last administration. Blood samples were taken at 90 minutes after the last administration, and the blood glucose and serum FFA levels were determined, respectively.
# [8] = test system: serum FFA level in non-diabetic rats; experiment: Serum FFA level in non-diabetic rats, oral administration for 10 days; assay type: in vivo, male Sprague Dawley rats
# Experimental: as §1, §3
# [9] = test system: serum FFA level in alloxan diabetic rats; experiment: Serum FFA level in alloxan diabetic rats, 10 consecutive days; assay type: in vivo, male Sprague Dawley rats
# Experimental: as §1, §2
# (§4) The alloxan diabetic rats which were prepared and then preserved for 6 months with insulin as described in the previous experiment were used.
# [10] = test system: serum cholesterol level in alloxan diabetic rats; experiment: Serum cholesterol level in alloxan diabetic rats, 10 consecutive days; assay type: in vivo, male Sprague Dawley rats
# Experimental: as §1, §2, §4
# [11] = test system: serum triglyceride level in alloxan diabetic rats; experiment: Serum triglyceride level in alloxan diabetic rats, 10 consecutive days; assay type: in vivo, male Sprague Dawley rats
# Experimental: The animals used for the pharmacological studies were male Sprague Dawley rats exept otherwise noted. 1. Hypoglycemic activity in non-diabetic rats (screening test)
# as §2, §4
# [12] = test system: serum FFA level in alloxan diabetic rats; experiment: Serum FFA level in alloxan diabetic rats loaded with much quantity of glucose; assay type: in vivo, male Sprague Dawley rats; conditions: compound 4 12.5 and 100 mg/kg, phenformin 100mg/kg; oral with 2g/kg of glucose; 3 hours
# Experimental: as §1
# Respective dose of the compound 4 (12.5 and 100 mg/kg) together with 2g/kg of glucose was orally administered to the alloxan diabetic rats.
# Acute toxicity in mice = assay type: in vivo
# Description: (§5) Thus, the toxicity of the present compound was considered to be extremely low.
# Acute toxicity in rats = assay type: in vivo
# Description: as §5
# [13] = 100 mg/kg, 10 consecutive days, control = 100
# [14] = maximum dose technically possible
smiles,measurement,setting,value
"Cc1cc(C)n(C(=O)CNS(=O)(=O)c2ccc(Cl)cc2)n1 [Example 4, 1-(N-p-chlorobenzenesulfonyl-glycyl)-3,5-dimethylpyrazole]",Blood glucose before administration,[1],85.6 ± 3.2 mg%
same,Durability of hypoglycemic effect,"[1]; 50 mg/kg oral, 2, 4 and 6 hours",more durable than that of tolbutamide
same,Blood glucose 2 hours,[1]; 50 mg/kg oral,50.9 ± 1.2 mg%
same,Blood glucose 4 hours,[1]; 50 mg/kg oral,63.1 ± 3.0 mg%
same,Blood glucose 6 hours,[1]; 50 mg/kg oral,74.0 ± 1.6 mg%
same,Blood glucose before administration,"[2]; 100 mg/kg oral group, before administration (baseline), ± SE",352.1 ± 31.6 mg%
same,Blood glucose 2 hours,"[2]; 100 mg/kg oral, 2 hours, ± SE",267.6 ± 34.3 mg%
same,Blood glucose 4 hours,"[2]; 100 mg/kg oral, 4 hours, ± SE",172.4 ± 35.1 mg%
same,Blood glucose 6 hours,"[2]; 100 mg/kg oral, 6 hours, ± SE",97.8 ± 13.4 mg%
same,Hypoglycemic effect in alloxan diabetic rats (in words),[2],"could be observed, and it lasted so longer than that of phenformin (phenethylbiguanide) as to be potent even at 6 hours after the administration"
same,Reduction of the blood glucose level (in words),[3]; 0.125 mg/kg oral,significantly reduced the blood glucose level even at low dose of 0.125 mg/kg
same,Reduction % from control,[3]; 0.125 mg/kg oral,51.9%
same,Blood glucose,[3]; 0.125 mg/kg oral,37.9 ± 5.5 mg %
same,Reduction % from control,[3]; 0.25 mg/kg oral,70.4%
same,Blood glucose,[3]; 0.25 mg/kg oral,23.3 ± 4.0 mg %
same,Reduction % from control,[3]; 0.50 mg/kg oral,77.5%
same,Blood glucose,[3]; 0.50 mg/kg oral,17.8 ± 3.6 mg %
same,Reduction % from control,[3]; 1.0 mg/kg oral,83.6%
same,Blood glucose,[3]; 1.0 mg/kg oral,12.9 ± 1.4 mg %
same,Reduction % from control,[3]; 2.0 mg/kg oral,81.6%
same,Blood glucose,[3]; 2.0 mg/kg oral,14.5 ± 3.2 mg %
same,Reduction % from control,[3]; 4.0 mg/kg oral,81.6%
same,Blood glucose,[3]; 4.0 mg/kg oral,14.6 ± 2.9 mg %
same,Hypoglycemic activity against hyperglycemia induced by adrenalin,[4],particularly effective against the hyperglycemia induced by adrenalin
same,Hypoglycemic activity on elevated blood glucose induced by hydrocortisone acetate,[5],exerted its hypoglycemic activity on elevated blood glucose levels in adrenalectomized rats
same,Blood glucose level,[6],66.5 ± 6.0 mg/dL
same,Effect on blood glucose level (in words),[6],significantly lowered the blood glucose level
same,Blood glucose levels,[7]; 0.8 mg/kg oral once a day,81.6 ± 4.8 mg/dL
same,Blood glucose levels,[7]; 3.1 mg/kg oral once a day,74.4 ± 6.6 mg/dL
same,Blood glucose levels,[7]; 12.5 mg/kg oral once a day,74.8 ± 3.9 mg/dL
same,Blood glucose levels,[7]; 50.0 mg/kg oral once a day,69.9 ± 6.7 mg/dL
same,Serum FFA levels,[8]; 0.8 mg/kg oral once a day,46.8 ± 5.1 μ Eq/dl
same,Effect on serum FFA level (in words),[8]; 0.8 mg/kg/day oral,significantly lowered the serum FFA level even at a low dose (0.8mg/kg/day)
same,Serum FFA levels,[8]; 3.1 mg/kg oral once a day,35.9 ± 2.9 μ Eq/dl
same,Serum FFA levels,[8]; 12.5 mg/kg oral once a day,27.1 ± 1.5 μ Eq/dl
same,Serum FFA levels,[8]; 50.0 mg/kg oral once a day,27.9 ± 1.5 μ Eq/dl
same,FFA,"[9]; 100 mg/kg, 10 consecutive days",28.5 ± 7.6 μ Eq/dl serum
same,"FFA, relative to control (100)",[9]; [13],44.0
same,"Effect on serum FFA level, 10 days (in words)","[9]; oral, 10 days",significantly reduced
same,Cholesterol,"[10]; 100 mg/kg, 10 consecutive days",46.1 ± 2.9 mg/dl serum
same,"Cholesterol, relative to control (100)",[10]; [13],77.6
same,"Effect on serum cholesterol level, 10 days (in words)","[10]; oral, 10 days",significantly reduced
same,Triglyceride,"[11]; 100 mg/kg, 10 consecutive days",22.1 ± 4.6 mg/dl serum
same,"Triglyceride, relative to control (100)",[11]; [13],40.1
same,"Effect on serum triglyceride level, 10 days (in words)","[11]; oral, 10 days",significantly reduced
same,Effect on serum FFA level (in words),[12],significantly lowered at 3 hours after the administration (p<0.005)
same,Maximum oral dose without death,Acute toxicity in mice; [14],about 17 g/kg
same,Mortality,"Acute toxicity in mice; oral, up to about 17g/kg",no mice or rats suffered death
same,Maximum oral dose without death,Acute toxicity in rats; [14],about 17 g/kg
same,Mortality,"Acute toxicity in rats; oral, up to about 17g/kg",no mice or rats suffered death
"CCCCNC(=O)NS(=O)(=O)c1ccc(C)cc1 [Tolbutamide, reference compound]",Blood glucose before administration,[1],86.2 ± 2.1 mg%
same,Blood glucose 2 hours,[1]; 50 mg/kg oral,44.7 ± 5.0 mg%
same,Blood glucose 4 hours,[1]; 50 mg/kg oral,60.4 ± 5.4 mg%
same,Blood glucose 6 hours,[1]; 50 mg/kg oral,80.7 ± 5.4 mg%
same,Hypoglycemic effect in alloxan diabetic rats (in words),[2],could not exert its hypoglycemic effect in the alloxan diabetic rats
same,Reduction % from control,[3]; 15 mg/kg oral,42.0%
same,Blood glucose,[3]; 15 mg/kg oral,45.7 ± 7.3 mg %
same,Reduction % from control,[3]; 30 mg/kg oral,79.2%
same,Blood glucose,[3]; 30 mg/kg oral,16.4 ± 2.1 mg %
same,Reduction % from control,[3]; 60 mg/kg oral,87.9%
same,Blood glucose,[3]; 60 mg/kg oral,9.5 ± 0.6 mg %
same,Blood glucose level,[6],57.7 ± 12.1 mg/dL
same,Effect on blood glucose level (in words),[6],significantly lowered the blood glucose level
same,Blood glucose levels,[7]; 50.0 mg/kg oral once a day,33.6 ± 6.3 mg/dL
same,Serum FFA levels,[8]; 50.0 mg/kg oral once a day,45.1 ± 2.7 μ Eq/dl
